Like-named read-outs stand apart in the source and are kept apart here.
Tests used:
[1] = target: extended human kinome (kinase-like proteins) (Homo sapiens, UniProt Q9UIJ7); assay: Whole cell quantitative proteomics: extended kinome hits
[2] = target: T1, extended human kinome (kinase-like proteins) (Homo sapiens, UniProt Q53R41); assay: as above
T1 sequence (Q53R41 1-847): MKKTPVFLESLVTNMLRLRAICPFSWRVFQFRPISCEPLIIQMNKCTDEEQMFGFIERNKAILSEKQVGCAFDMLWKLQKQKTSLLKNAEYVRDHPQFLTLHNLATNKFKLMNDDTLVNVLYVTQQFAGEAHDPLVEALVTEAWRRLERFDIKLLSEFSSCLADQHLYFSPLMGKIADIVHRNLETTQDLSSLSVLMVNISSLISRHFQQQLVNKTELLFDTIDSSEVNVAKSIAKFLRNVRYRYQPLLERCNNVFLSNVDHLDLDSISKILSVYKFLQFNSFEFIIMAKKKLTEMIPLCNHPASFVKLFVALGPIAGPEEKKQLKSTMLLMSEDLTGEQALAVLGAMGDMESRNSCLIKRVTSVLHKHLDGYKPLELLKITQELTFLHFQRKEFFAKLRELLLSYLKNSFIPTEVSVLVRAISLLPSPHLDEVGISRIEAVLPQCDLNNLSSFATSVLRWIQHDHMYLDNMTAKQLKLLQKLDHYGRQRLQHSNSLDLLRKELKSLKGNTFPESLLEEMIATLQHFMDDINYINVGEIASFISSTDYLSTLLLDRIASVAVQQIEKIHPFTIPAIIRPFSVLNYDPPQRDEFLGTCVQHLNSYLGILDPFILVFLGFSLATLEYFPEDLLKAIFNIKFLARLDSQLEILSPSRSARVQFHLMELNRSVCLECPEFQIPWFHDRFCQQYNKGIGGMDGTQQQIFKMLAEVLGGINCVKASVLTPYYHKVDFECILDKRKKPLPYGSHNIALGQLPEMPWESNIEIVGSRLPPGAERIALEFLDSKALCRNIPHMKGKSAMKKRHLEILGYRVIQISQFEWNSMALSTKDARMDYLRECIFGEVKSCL

[3] = target: protein kinases (human kinome) (Homo sapiens, UniProt Q00534); assay type: cell-based; conditions: for logFC CDK6: CDK6 (Q00534), direction down; for logFC of CDK6 (Q00534): down
[4] = target: protein kinases (human kinome) (Homo sapiens, UniProt P53671); assay type: cell-based; conditions: experiment wp137
protein kinases (human kinome) (Homo sapiens, UniProt P53671), sequence (P53671 whole entry): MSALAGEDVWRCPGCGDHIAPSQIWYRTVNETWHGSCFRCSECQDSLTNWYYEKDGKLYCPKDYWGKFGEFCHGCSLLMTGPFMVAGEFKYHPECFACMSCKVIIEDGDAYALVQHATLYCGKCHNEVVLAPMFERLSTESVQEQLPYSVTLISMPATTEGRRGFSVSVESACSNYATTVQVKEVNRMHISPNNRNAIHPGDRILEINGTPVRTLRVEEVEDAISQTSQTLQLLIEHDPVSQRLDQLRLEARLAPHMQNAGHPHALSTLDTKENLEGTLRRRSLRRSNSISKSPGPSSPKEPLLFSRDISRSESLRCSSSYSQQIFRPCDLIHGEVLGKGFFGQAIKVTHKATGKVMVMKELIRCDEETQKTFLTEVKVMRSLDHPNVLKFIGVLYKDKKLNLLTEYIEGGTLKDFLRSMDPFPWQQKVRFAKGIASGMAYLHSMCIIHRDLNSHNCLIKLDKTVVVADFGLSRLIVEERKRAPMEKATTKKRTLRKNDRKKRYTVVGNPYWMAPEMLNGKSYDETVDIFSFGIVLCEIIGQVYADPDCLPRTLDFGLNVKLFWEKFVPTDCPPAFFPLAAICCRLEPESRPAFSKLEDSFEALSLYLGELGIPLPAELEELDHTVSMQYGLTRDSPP

extended human kinome (kinase-like proteins) (Homo sapiens, UniProt Q9UIJ7), sequence (Q9UIJ7 whole entry): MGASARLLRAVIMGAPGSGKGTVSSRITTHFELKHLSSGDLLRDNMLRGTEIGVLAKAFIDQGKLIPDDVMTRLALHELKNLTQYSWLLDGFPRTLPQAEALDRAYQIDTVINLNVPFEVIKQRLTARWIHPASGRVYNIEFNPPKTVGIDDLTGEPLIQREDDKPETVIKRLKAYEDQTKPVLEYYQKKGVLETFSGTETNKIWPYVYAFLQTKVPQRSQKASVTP
protein kinases (human kinome) (Homo sapiens, UniProt Q00534), sequence (Q00534 whole entry): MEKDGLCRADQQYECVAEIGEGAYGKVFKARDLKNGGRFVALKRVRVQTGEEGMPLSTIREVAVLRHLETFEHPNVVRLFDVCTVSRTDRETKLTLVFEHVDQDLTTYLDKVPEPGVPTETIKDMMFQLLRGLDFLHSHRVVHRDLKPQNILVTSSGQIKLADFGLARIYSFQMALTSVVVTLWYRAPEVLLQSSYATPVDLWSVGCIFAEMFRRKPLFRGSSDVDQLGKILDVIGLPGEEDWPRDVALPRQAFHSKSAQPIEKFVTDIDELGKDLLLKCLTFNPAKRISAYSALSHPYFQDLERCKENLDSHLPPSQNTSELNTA

Compound: CC(=O)c1c(C)c2cnc(Nc3ccc(N4CCN(CCOCCOCCOCCNC(=O)COc5cccc6c5C(=O)N(C5CCC(=O)NC5=O)C6=O)CC4)cn3)nc2n(C2CCCC2)c1=O (stereo not drawn) [BSJ.03.123]
- logFC AK3 (Q9UIJ7-1) ([1]; experiment wp084): −0.4577
- logFC FASTKD1 (Q53R41) ([2]; experiment wp084): −0.5242
- logFC CDK6 ([3]; experiment wp084): −3.058
- logFC of CDK6 (Q00534) ([3]; Experiment wp084): −3.058

Compound: CN(C)C(=O)c1cc2cnc(Nc3ccc(N4CCN(CCCCNC(=O)COc5cccc6c5C(=O)N(C5CCC(=O)NC5=O)C6=O)CC4)cn3)nc2n1C1CCCC1 (stereo not drawn) [BSJ.04.132]
- logFC AK3 (Q9UIJ7-1) ([1]; experiment wp084): −0.6124
- logFC FASTKD1 (Q53R41) ([2]; experiment wp084): −0.6747
- logFC CDK6 ([3]; experiment wp084): −0.7531
- logFC of CDK6 (Q00534) ([3]; Experiment wp084): −0.7531

Compound: CC(C)(C)c1nc(-c2cccc(NS(=O)(=O)c3c(F)cccc3F)c2F)c(-c2ccnc(NCCOCCNC(=O)CCOCCOCCNc3cccc4c3C(=O)N(C3CCC(=O)NC3=O)C4=O)n2)s1 (stereo not drawn) [DD.03.106]
- logFC AK3 (Q9UIJ7-1) ([1]; experiment wp147, 4 uM): −0.7202
- logFC FASTKD1 (Q53R41) ([2]; experiment wp147, 4 uM): −0.6262
- logFC CDK6 ([3]; experiment wp047): −1.086
- logFC CDK6 ([3]; experiment wp137): −1.083
- logFC CDK6 ([3]; experiment wp147, 1 uM): −0.8934
- logFC CDK6 ([3]; experiment wp147, 2 uM): −1.348
- logFC CDK6 ([3]; experiment wp147, 4 uM): −1.159
- logFC of CDK6 (Q00534) ([3]; Experiment wp047): −1.086
- logFC of CDK6 (Q00534) ([3]; Experiment wp137): −1.083
- logFC of CDK6 (Q00534) ([3]; Experiment wp147, 1 uM): −0.8934
- logFC of CDK6 (Q00534) ([3]; Experiment wp147, 2 uM): −1.348
- logFC of CDK6 (Q00534) ([3]; Experiment wp147, 4 uM): −1.159
- logFC LIMK2 ([4]; LIMK2 (P53671), down): −1.026
- logFC of LIMK2 ([4]; LIMK2 P53671): −1.026

Compound: O=C(COc1cccc2c1C(=O)N(C1CCC(=O)NC1=O)C2=O)NCCCCCCCC(=O)NC1(c2ccc(-c3nc4ccn5c(=O)[nH]nc5c4cc3-c3ccccc3)cc2)CCC1 (stereo not drawn) [INY.01.140.1]
- logFC AK3 (Q9UIJ7-1) ([1]; experiment wp081): −0.4102
- logFC FASTKD1 (Q53R41) ([2]; experiment wp081): −0.4808
